This passage reports UPLC-ELSD product analysis results from PMC4791539, “Crystal structure of Anoxybacillus α-amylase provides insights into maltose binding of a new glycosyl hydrolase subclass” (Scientific Reports, 2016).

For this assay, the target named is T1, TASKA (truncated ASKA) (Anoxybacillus ayderensis, UniProt I1VWH9).
T1 construct: signal peptide (1-23) and predicted C-terminal transmembrane region (479-505) removed; 6xHis tags at N- and C-termini (pET-28a); E. coli BL21(DE3); monomer in asymmetric unit
T1 sequence (I1VWH9 24-478): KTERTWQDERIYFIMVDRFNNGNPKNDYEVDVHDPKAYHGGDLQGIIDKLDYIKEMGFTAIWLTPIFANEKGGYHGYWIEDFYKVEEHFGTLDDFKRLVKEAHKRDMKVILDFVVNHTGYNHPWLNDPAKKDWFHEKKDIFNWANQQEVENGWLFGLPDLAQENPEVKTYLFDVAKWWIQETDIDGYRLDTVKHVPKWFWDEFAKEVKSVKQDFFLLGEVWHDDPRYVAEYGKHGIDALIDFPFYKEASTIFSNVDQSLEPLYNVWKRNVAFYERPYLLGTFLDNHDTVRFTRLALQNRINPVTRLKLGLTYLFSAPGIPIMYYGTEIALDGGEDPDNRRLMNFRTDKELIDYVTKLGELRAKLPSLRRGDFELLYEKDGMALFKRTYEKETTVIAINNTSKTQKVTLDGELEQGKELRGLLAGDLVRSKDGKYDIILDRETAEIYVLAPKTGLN
The assay can be described thus: UPLC-ELSD product analysis. Format: biochemical. To be noted: hydrolysed to glucose and maltose; co-crystal (TASKA-T) shows only maltose.

Molecules are shown by their SMILES.

For the compound `OC[C@H]1O[C@H](O[C@H]2[C@H](O)[C@@H](O)[C@@H](O[C@H]3[C@H](O)[C@@H](O)C(O)O[C@@H]3CO)O[C@@H]2CO)[C@H](O)[C@@H](O)[C@@H]1O` (stereo partly shown) [maltotriose], the UPLC-ELSD product analysis result is “glucose and maltose were produced following the hydrolysis of maltotriose”.
